Key:
[1] = test system: retinal edema induced by retinal ischemia; test: Retinal edema (Method #1), induced by retinal ischemia; type: in vivo, rat; settings: LE rats, 1% solution, topical bid × 5, retinal vein thrombosis; vehicle 5.2
Procedure: Retinal Edema (Method #1) Retinal edema was induced in rats by retinal ischemia. LE rats were injected i.v. with the photosensitizing dye Rose Bengal, followed by laser stimulation of a single retinal vein (in the right eye only) so as to induce thrombosis and thus retinal ischemia. Animals were dosed topically with either test compound or vehicle (10 μL eyedrops twice per day bilaterally) for a total of 5 dosings. Retinal edema was then measured by injecting animals i.p. with sodium fluorescein followed 45 later by ocular fluorophotometry to detect fluorescein leakage into the retina and vitreous chamber. An Edema Index (EI) was calculated according to the following formula: EI=(Fod−Fos)/Fos, where Fod=AUC value for fluorescence in the right eye, and Fos=AUC value for fluorescence in the left (treated but not thrombosed) eye.

[2] = test system: retinal edema induced by intravitreal injection of VEGF; test: Retinal edema (Method #2), induced by intravitreal VEGF; type: in vivo, rat; settings: LE rats, 1% solution topical, vehicle 0.363
Procedure: Retinal Edema (Method #2) Retinal edema was induced in rats by intravitreal injection of vascular endothelial growth factor (VEGF). LE rats were dosed topically (bilaterally) with either test compound or vehicle (10 μL eyedrops), followed by intravitreal injections of either saline (left eye) or VEGF (right eye). Five hours later, animals were again dosed topically with test compound or vehicle, and then injected i.p. with sodium fluorescein followed 45 later by ocular fluorophotometry to detect fluorescein leakage into the retina and vitreous chamber. EI was calculated according to the following formula: EI=(Fod−Fos)/Fos, where Fod=AUC value for fluorescence in the right eye, and Fos=AUC value for fluorescence in the left (saline injected) eye.

[3] = test system: retinal neovascularization; test: Retinal neovascularization, normoxia-hyperoxia-normoxia mouse pups; type: in vivo; settings: C57BL/6 mouse pups
Procedure: Retinal Neovascularization Retinal neovascularization was induced in mouse pups by cyclic exposure to normoxia-hyperoxia-normoxia. C57BL/6 mouse pups were exposed to hyperoxia (75% O2 environment) for 5 days starting at from postnatal day 7, then returned to a normoxic environment. Dosing was also initiated at this time (bilateral topical application of test compound or vehicle as a 10 μL eyedrops twice per day). After 5 days of dosing, retinal wholemounts were prepared and stained with a fluorescently labeled lectin that specifically stains murine endothelium. Digital images were captured by fluorescence microscopy and used to quantify total vascular area.

[4] = test system: choroidal neovascularization; test: Choroidal neovascularization induced by laser injury; type: in vivo, mouse; settings: C57BL/6 mice, 1% solution topical twice per day, 14 days; vehicle 16,192
Procedure: Choroidal Neovascularization Choroidal neovasculariztion was induced in mice by laser injury. Laser photocoagulation was performed on the choroids of C57BL/6 mice, after which mice were dosed topically with test compound or vehicle for a total of 14 days (10 μL applied per eye twice per day). At the end of the 2 week dosing period, mice were perfused with fluorescein-labeled dextran (2×10^6 average molecular weight), eyes were removed and fixed in formalin, and choroidal flatmounts prepared. Laser injury sites were photographed by fluorescence microscopy and digital images were used to quantify the area of choroidal neovascularization.

[5] = molecular target: T1, Yes (Homo sapiens, UniProt P07947); test: Yes kinase inhibition (KinaseGlo); type: biochemical
T1 construct: purchased Panvera/Invitrogen
Procedure: (§1) The ability of compounds of the present invention to inhibit the activity of various groups of kinases was tested. Kinases that were tested are described below. All kinase reactions were conducted in 96-well plates with a final reaction volume of 50 μl.
(§2) Recombinant human c-Src or Yes, or Fyn, or Lck (28 ng/well, Panvera/Invitrogen, Madison Wis.), ATP (3 μM), a tyrosine kinase substrate (PTK2, 250 μM, Promega Corp., Madison Wis.), and test agents (at concentrations ranging from about 1 nM/l to about 100 μM/l), in the presence of Src kinase reaction buffer (Upstate USA, Lake Placid N.Y.). After reacting for about 90 minutes at room temperature, residual ATP was determined using a luciferase-based assay (KinaseGlo, Promega Corp.) as a measure of kinase activity. Data from four wells were then averaged and used to determine IC50 values for the test compounds (Prism software package, GraphPad Software, San Diego Calif.).

[6] = molecular target: T2, Lck (Homo sapiens, UniProt P06239); test: Lck kinase inhibition (KinaseGlo); type: biochemical
T2 construct: purchased Panvera/Invitrogen
Procedure: as §1, §2

[7] = molecular target: Abl (Homo sapiens, UniProt P00519); test: Abl kinase inhibition; type: biochemical
Procedure: as §1
Src Family of Kinases, abl, and Ret
as §2

[8] = molecular target: T3, EGFR (Homo sapiens, UniProt P00533); test: EGFR kinase inhibition (residual ATP); type: biochemical; settings: 2.5 uM ATP, 60 min 37° C.
T3 construct: purchased Panvera/Invitrogen
Procedure: as §1
EGFR and VEGFR2 kinase assays were similarly performed. EGFR (76 ng/well, Panvera/Invitrogen) was combined with 12.5 mg/ml poly(glu4tyr) (Sigma) and 2.5 uM ATP. VEGFR2 (14.1 U/well, Cell Signaling/ProQinase) was used with 0.3 mg/ml poly(glu4tyr) and 1.5 uM ATP. Both were incubated for 60 minutes at 37° C., and the residual ATP was measured via luminescence, per the procedure described above.

[9] = test system: human retinal micro vascular endothelial cells (hRMVEC); test: Cellular data using hRMVEC; type: cell-based; settings: Endothelial cell

Abl, sequence (P00519 whole entry, species assumed): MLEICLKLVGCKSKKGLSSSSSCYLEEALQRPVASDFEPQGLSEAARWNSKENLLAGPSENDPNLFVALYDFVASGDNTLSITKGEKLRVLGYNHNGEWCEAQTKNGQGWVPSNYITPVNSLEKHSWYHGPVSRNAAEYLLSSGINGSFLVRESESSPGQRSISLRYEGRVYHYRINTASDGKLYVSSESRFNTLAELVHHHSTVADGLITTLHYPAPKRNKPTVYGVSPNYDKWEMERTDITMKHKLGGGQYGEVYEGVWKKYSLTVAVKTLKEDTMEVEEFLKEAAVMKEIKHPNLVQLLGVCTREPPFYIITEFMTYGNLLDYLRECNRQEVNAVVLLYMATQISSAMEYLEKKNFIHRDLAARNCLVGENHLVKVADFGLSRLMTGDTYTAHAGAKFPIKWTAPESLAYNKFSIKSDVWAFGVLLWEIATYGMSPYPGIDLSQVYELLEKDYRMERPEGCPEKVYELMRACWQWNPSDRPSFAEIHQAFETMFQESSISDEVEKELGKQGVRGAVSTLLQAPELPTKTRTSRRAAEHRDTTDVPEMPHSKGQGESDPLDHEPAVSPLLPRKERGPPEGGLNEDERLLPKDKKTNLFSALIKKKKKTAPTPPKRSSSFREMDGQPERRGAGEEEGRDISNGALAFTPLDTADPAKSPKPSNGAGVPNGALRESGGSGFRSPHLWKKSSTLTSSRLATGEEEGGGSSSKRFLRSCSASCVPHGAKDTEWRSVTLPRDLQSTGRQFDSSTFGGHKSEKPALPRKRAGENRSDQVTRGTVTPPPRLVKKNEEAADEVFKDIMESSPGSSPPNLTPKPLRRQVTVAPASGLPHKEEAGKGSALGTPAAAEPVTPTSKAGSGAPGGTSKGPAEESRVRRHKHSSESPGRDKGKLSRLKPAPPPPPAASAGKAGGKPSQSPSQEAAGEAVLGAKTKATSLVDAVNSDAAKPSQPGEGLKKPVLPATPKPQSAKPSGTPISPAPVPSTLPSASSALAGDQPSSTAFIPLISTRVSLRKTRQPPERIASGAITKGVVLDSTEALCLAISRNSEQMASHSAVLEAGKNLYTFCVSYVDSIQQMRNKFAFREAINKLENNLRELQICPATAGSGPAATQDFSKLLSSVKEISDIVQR
T3 sequence (P00533 25-1210, species assumed): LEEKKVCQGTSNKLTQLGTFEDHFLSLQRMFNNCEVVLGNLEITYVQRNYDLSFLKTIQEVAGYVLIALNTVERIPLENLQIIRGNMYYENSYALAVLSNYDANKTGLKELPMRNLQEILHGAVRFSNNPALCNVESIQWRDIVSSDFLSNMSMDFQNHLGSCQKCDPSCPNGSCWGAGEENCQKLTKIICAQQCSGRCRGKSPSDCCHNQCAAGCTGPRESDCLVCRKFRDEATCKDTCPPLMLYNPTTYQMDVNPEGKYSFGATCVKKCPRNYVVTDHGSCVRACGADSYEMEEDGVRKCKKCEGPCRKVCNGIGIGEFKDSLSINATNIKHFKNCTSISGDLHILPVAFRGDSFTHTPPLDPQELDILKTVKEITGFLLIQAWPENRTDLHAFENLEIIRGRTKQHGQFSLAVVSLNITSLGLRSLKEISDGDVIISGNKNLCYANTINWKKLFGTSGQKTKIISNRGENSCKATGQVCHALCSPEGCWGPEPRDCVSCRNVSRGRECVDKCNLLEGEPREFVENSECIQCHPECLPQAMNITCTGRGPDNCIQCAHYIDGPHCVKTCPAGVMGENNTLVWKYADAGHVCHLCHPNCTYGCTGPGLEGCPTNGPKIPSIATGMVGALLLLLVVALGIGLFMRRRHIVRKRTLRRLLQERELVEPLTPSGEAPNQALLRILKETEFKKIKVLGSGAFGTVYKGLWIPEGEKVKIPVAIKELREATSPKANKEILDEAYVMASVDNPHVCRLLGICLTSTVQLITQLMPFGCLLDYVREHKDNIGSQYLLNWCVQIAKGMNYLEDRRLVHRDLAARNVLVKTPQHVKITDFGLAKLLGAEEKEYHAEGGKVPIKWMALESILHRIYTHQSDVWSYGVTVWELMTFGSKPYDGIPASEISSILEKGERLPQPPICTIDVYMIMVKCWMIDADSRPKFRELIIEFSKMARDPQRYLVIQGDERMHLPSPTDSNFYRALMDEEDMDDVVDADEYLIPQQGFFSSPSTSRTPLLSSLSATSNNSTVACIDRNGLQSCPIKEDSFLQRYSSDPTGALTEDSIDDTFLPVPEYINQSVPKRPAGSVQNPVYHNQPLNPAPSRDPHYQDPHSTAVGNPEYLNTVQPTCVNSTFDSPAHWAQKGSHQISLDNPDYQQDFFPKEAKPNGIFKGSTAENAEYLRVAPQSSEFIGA
T2 sequence (P06239 whole entry): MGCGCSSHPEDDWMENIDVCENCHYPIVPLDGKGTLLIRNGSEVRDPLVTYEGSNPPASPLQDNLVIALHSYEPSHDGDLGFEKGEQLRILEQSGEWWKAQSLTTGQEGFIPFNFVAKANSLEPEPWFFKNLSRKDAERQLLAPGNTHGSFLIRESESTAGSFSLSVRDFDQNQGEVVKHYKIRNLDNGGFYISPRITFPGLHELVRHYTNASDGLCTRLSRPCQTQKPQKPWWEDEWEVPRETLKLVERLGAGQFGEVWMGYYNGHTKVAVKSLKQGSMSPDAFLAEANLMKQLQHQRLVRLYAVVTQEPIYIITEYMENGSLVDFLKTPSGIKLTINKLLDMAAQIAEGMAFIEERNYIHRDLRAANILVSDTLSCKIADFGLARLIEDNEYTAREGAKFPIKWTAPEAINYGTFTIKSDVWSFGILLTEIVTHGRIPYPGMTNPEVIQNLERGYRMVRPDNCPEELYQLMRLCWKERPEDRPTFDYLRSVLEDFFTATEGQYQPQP
T1 sequence (P07947 whole entry): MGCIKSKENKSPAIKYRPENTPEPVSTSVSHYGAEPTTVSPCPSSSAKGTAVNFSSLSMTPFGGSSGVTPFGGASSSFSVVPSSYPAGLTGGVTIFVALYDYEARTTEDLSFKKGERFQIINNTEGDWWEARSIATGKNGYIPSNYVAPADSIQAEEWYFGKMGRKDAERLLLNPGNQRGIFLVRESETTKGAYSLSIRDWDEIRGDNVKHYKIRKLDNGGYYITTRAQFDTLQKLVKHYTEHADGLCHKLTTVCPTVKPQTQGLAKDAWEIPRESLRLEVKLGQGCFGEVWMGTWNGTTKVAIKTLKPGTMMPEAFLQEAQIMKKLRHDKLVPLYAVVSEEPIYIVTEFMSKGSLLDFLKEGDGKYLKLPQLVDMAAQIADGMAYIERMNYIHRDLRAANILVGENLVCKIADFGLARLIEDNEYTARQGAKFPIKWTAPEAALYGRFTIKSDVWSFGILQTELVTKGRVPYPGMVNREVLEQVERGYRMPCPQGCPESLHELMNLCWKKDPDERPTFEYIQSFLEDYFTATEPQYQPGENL

Row | SMILES | IC50 [5] [nM] | IC50 [6] [nM] | IC50 [7] [nM] | EC50 [9] [nM] | also measured
1 | O=C(Nc1ccc(Cl)c(C(=O)Nc2cnc(Nc3ccc(OCCN4CCCC4)cc3)nc2)c1)c1cccc(C(F)(F)F)c1 [Compound XL, 2-Chloro-N-{2-[4-(2-Pyrrolidin-1-yl-ethoxy)-Phenylamino]-Pyrimidin-5-yl}-5-(3-Trifluoromethyl-Benzoylamino)-Benzamide] | – | – | – | – | Edema Index [1]: 2.3; EI [2]: 0.110; reduction in retinal vascularization compared to vehicle ([3]; 0.1% solution, twice per day, 5 days, P=0.009): 29%; % Reduction vs. Vehicle (retinal vascularization) ([3]; 1% of compound XL (table), topical bid × 5): 29%; Area (mm^2), total retinal vascular area ([3]; 1% of compound XL (table), topical bid × 5, vehicle 8.269): 6.429 mm^2; Area (μm^2) of choroidal neovascularization [4]: 9,388 μm^2
2 | O=C(Nc1ccc(Cl)c(C(=O)Nc2cnc(Nc3cccc(OCCN4CCCC4)c3)nc2)c1)c1cccc(C(F)(F)F)c1 [drawing 225] | 0.52 | 1.7 | 1.1 | – | –
3 | Cc1ccc(NC(=O)c2cccc(C(F)(F)F)c2)cc1C(=O)Nc1cnc(Nc2cccc(OCCN3CCCC3)c2)nc1 [drawing 226] | 0.93 | 3.8 | – | – | –
4 | O=C(Nc1cnc(Nc2cccc(OCCN3CCCC3)c2)nc1)c1cc(NC(=O)C(F)(F)F)ccc1Cl [drawing 227] | – | – | 154 | – | –
5 | O=C(Nc1ccc(Cl)c(C(=O)Nc2cnc(Nc3ccc(S(=O)(=O)C4CCNCC4)cc3)nc2)c1)c1cccc(C(F)(F)F)c1 [drawing 228] | 0.9 | 4.5 | 0.2 | – | –
6 | Cc1ccc(NC(=O)c2cccc(C(F)(F)F)c2)cc1C(=O)Nc1cnc(Nc2ccc(OCCN3CCCC3)cc2)nc1 [drawing 229] | 1.3 | 5.1 | 5.5 | – | –
7 | O=C(Nc1ccc(Cl)c(C(=O)Nc2cnc(Nc3ccc(OCCN4CCCC4)cc3)nc2)c1)c1cccc(C(F)(F)F)c1 [drawing 230] | 0.46 | 2.2 | 1.8 | – | IC50 [8]: 98 nM
8 | O=C(Nc1ccc(Cl)c(C(=O)Nc2cnc(Nc3ccc(CCCN4CCCC4)cc3)nc2)c1)c1cccc(C(F)(F)F)c1 [drawing 231] | – | – | 3.8 | – | –
9 | Cc1ccc(NC(=O)C(F)(F)F)cc1C(=O)Nc1cnc(Nc2cccc(OCCN3CCCC3)c2)nc1 [drawing 232] | – | – | 126 | – | –
10 | O=C(Nc1ccc(Cl)c(C(=O)Nc2cnc(Nc3ccc(CCCN4CCCC4)cc3)nc2)c1)c1cccc(C(F)(F)F)c1 [drawing 233] | – | – | – | – | IC50 [8]: 124 nM
11 | O=C(Nc1ccc(Cl)c(C(=O)Nc2cnc(Nc3ccccc3)nc2)c1)c1cccc(C(F)(F)F)c1 [drawing 234] | 4.2 | 32.2 | – | – | –
12 | Cc1ccc(Nc2nccc3ccccc23)cc1C(=O)Nc1cnc(Nc2cccc(OCCN3CCCC3)c2)nc1 [drawing 236] | 22.2 | 309 | – | – | –
13 | O=C(Nc1cccc(C(F)(F)F)c1)Nc1ccc(Cl)c(C(=O)Nc2cnc(Nc3ccc(OCCN4CCCC4)cc3)nc2)c1 [drawing 237] | 2.5 | 22.4 | – | – | IC50 [8]: 558 nM
14 | O=C(Nc1ccc(Cl)c(C(=O)Nc2cnc(Nc3cccc(OCCN4CCCC4)c3)nc2)c1)c1cccc(C(F)(F)F)c1 [drawing 238] | – | – | – | 69 | –
15 | O=C(Nc1ccc(Cl)c(C(=O)Nc2cnc(Nc3ccc(S(=O)(=O)C4CCNCC4)cc3)nc2)c1)c1cccc(C(F)(F)F)c1 [drawing 239] | – | – | – | 1150 | –
16 | Cc1ccc(NC(=O)c2cccc(C(F)(F)F)c2)cc1C(=O)Nc1cnc(Nc2ccc(OCCN3CCCC3)cc2)nc1 [drawing 240] | – | – | – | 199 | –
17 | O=C(Nc1ccc(Cl)c(C(=O)Nc2cnc(Nc3ccc(OCCN4CCCC4)cc3)nc2)c1)c1cccc(C(F)(F)F)c1 [drawing 241] | – | – | – | 30 | –
18 | O=C(Nc1ccc(Cl)c(C(=O)Nc2cnc(Nc3ccc(CCCN4CCCC4)cc3)nc2)c1)c1cccc(C(F)(F)F)c1 [drawing 242] | – | – | – | 41 | –
19 | O=C(Nc1ccc(Cl)c(C(=O)Nc2cnc(Nc3cccnc3)nc2)c1)c1cccc(C(F)(F)F)c1 [drawing 243] | – | – | – | 68 | –

Source: patent publication US8030487B2, “2-amino—5-substituted pyrimidine inhibitors” (TargeGen, Inc., priority 2006, dated 2011)
